Laboratory results from article PMC8449129, “Single tracer-based protocol for broad-spectrum kinase profiling in live cells with NanoBRET” (STAR Protocols, 2021).

Tests used:
Assay in all cases: cell-based
Parameters in all cases: NanoBRET live-cell target engagement; % occupancy from displacement of tracer K10 on NanoLuc-kinase fusions, mean n=3
Settings in all cases: HEK293, read-out: % inhibition
[1] = molecular target: ERN1 (Homo sapiens, UniProt O75460)
Outline: (§1)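 Live-cell NanoBRET target engagement: cells expressing kinase–NanoLuc fusion with tracer treated with compound 2 h at 37 °C, 5% CO2. BRET read from donor (450 nm) and acceptor (610/630 nm) emission with 20 μM extracellular NanoLuc inhibitor; % occupancy calculated relative to tracer+DMSO and zero-BRET controls.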

[2] = molecular target: STK4 (Homo sapiens, UniProt Q13043)
Outline: as §1

[3] = molecular target: SNRK (Homo sapiens, UniProt Q9NRH2)
Outline: as §1

[4] = molecular target: STK38L (Homo sapiens, UniProt Q9Y2H1)
Outline: as §1

[5] = molecular target: CDK1 (Homo sapiens, UniProt P06493)
Outline: as §1

[6] = molecular target: NIM1K (Homo sapiens, UniProt Q8IY84)
Outline: as §1

[7] = molecular target: WEE1 (Homo sapiens, UniProt P30291)
Outline: as §1

[8] = molecular target: PRKX (Homo sapiens, UniProt P51817)
Outline: as §1

[9] = molecular target: CDK16 (Homo sapiens, UniProt Q00536)
Outline: as §1

[10] = molecular target: STK32B (Homo sapiens, UniProt Q9NY57)
Outline: as §1

[11] = molecular target: SIK1 (Homo sapiens, UniProt P57059)
Outline: as §1

[12] = molecular target: RPS6KA2 (Homo sapiens, UniProt Q15349)
Outline: as §1

[13] = molecular target: CLK2 (Homo sapiens, UniProt P49760)
Outline: as §1

[14] = molecular target: DAPK2 (Homo sapiens, UniProt Q9UIK4)
Outline: as §1

[15] = molecular target: BRSK2 (Homo sapiens, UniProt Q8IWQ3)
Outline: as §1

[16] = molecular target: MAPK6 (Homo sapiens, UniProt Q16659)
Outline: as §1

[17] = molecular target: LIMK2 (Homo sapiens, UniProt P53671)
Outline: as §1

[18] = molecular target: TNK1 (Homo sapiens, UniProt Q13470)
Outline: as §1

Sequence of SIK1 (P57059 whole entry): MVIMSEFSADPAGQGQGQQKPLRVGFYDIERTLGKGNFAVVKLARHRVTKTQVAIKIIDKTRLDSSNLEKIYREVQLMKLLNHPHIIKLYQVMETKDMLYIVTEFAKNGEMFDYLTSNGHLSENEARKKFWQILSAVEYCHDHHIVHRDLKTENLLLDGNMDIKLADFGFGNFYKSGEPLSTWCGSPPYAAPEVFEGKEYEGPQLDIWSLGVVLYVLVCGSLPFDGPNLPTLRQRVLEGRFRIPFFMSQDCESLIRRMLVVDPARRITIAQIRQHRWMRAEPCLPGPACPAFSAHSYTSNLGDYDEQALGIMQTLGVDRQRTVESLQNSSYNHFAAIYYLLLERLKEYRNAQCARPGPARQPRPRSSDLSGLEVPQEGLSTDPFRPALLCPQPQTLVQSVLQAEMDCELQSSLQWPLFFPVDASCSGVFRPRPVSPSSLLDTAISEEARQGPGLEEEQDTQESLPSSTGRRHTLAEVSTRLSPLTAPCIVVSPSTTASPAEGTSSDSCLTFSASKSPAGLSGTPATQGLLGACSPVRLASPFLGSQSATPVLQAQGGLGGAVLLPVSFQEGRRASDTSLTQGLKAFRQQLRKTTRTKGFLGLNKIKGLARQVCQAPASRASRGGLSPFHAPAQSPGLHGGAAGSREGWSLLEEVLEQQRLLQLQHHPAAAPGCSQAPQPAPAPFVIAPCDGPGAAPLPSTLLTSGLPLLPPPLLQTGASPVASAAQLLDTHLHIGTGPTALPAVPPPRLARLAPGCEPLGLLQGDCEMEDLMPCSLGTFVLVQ
Sequence of STK4 (Q13043 whole entry): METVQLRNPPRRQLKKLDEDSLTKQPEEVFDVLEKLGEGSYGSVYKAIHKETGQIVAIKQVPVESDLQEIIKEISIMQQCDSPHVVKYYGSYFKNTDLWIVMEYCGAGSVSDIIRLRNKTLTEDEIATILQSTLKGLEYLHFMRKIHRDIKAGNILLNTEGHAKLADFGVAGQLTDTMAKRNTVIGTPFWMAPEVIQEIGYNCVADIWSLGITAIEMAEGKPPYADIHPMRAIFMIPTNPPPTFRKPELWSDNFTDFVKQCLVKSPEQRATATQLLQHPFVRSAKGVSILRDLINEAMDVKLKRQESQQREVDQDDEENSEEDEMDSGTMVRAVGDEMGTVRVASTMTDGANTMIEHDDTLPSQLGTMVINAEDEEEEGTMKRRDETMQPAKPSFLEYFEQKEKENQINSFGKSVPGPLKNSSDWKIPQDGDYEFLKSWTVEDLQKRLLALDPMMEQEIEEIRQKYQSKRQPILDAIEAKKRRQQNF
Sequence of ERN1 (O75460 whole entry, the tested form may be a part): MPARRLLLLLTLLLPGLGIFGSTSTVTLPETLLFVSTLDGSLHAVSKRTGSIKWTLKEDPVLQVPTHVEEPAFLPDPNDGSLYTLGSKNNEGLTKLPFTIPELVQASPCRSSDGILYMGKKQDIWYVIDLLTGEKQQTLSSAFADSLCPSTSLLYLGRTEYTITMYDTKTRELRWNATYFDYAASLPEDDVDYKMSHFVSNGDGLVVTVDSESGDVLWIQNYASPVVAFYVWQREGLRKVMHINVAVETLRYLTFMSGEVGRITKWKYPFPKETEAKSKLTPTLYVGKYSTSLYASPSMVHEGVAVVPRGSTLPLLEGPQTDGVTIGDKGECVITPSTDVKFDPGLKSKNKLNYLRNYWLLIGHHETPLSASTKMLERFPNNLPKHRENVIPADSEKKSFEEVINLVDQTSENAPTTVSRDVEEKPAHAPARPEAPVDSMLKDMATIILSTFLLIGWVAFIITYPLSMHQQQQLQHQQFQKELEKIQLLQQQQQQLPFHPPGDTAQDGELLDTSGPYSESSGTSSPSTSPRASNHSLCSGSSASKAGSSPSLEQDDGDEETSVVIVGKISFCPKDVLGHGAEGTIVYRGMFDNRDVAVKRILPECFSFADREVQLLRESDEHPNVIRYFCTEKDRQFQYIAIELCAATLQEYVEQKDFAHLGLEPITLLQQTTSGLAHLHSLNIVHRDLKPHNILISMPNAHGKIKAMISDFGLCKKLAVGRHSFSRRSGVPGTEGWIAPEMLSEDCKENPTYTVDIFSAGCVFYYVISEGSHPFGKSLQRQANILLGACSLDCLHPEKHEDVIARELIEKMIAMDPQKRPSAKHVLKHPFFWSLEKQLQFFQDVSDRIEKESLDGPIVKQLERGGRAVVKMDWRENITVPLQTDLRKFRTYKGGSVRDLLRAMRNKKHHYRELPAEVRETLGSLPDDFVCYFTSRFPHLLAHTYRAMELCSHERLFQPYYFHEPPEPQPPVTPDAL
Sequence of BRSK2 (Q8IWQ3 whole entry): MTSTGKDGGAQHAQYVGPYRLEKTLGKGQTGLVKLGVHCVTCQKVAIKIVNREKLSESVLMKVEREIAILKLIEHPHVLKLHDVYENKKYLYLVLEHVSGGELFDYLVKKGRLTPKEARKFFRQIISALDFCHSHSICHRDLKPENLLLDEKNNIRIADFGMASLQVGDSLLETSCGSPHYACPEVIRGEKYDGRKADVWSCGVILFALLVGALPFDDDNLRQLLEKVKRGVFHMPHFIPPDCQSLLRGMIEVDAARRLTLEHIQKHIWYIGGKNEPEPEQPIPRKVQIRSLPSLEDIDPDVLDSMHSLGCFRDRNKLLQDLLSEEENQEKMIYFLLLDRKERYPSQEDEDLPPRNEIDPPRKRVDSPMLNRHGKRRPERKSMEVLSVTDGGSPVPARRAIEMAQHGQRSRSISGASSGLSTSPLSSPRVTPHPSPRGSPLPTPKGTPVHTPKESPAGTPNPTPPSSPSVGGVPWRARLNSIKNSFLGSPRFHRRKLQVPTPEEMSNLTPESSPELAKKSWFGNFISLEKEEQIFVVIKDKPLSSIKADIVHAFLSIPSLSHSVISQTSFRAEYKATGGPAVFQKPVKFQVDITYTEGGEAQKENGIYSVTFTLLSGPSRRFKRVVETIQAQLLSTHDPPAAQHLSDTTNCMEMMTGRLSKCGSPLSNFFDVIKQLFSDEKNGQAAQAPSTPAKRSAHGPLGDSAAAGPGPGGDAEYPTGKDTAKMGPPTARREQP
Sequence of CDK16 (Q00536 whole entry): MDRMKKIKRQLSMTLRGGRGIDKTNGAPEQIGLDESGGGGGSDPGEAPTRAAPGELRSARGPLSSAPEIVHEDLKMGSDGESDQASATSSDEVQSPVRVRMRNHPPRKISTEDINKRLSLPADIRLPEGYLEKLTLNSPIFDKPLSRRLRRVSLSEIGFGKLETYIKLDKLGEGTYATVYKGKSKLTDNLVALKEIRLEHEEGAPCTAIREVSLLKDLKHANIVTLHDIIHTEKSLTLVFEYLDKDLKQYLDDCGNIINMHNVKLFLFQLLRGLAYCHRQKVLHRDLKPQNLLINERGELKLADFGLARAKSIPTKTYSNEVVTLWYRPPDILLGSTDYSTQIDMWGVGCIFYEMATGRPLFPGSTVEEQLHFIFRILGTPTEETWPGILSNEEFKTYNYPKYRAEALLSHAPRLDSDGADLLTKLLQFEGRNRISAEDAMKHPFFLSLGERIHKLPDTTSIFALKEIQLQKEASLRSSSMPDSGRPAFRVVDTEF
Sequence of STK38L (Q9Y2H1 whole entry): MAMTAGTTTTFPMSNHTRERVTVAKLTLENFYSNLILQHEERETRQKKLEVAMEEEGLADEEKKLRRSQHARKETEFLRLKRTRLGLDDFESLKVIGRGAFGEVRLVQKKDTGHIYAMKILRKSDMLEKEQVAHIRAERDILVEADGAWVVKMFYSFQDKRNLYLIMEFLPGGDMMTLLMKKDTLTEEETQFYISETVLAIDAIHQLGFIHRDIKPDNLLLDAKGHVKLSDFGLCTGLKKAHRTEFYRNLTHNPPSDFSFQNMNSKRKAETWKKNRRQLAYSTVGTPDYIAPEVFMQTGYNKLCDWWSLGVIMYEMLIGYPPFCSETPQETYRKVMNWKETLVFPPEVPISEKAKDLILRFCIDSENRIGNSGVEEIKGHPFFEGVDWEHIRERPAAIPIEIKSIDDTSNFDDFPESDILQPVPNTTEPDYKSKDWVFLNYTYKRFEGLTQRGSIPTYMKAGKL
Sequence of TNK1 (Q13470 whole entry): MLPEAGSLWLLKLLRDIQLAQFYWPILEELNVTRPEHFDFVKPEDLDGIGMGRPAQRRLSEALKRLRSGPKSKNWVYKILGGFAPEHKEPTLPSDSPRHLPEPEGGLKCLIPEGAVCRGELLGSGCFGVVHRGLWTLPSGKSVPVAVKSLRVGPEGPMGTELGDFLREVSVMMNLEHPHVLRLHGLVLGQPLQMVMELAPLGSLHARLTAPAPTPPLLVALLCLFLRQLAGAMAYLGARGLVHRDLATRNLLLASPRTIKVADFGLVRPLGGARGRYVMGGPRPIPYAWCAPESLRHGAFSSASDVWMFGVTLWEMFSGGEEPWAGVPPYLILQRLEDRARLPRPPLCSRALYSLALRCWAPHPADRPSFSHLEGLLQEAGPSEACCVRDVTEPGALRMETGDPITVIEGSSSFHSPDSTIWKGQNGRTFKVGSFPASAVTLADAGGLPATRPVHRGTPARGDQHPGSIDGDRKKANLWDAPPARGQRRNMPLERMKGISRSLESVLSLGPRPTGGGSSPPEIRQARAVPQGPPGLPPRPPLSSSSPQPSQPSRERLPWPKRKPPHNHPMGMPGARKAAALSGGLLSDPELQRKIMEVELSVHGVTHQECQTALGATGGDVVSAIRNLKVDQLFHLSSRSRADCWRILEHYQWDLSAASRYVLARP
Sequence of CDK1 (P06493 whole entry): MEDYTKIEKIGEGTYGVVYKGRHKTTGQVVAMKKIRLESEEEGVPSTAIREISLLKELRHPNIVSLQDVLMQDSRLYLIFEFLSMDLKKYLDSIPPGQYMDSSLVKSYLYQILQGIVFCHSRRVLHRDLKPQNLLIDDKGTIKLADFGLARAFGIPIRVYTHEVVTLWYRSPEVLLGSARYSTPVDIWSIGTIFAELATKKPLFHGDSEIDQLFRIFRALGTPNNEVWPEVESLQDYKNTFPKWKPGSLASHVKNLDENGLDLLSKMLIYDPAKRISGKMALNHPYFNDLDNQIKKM

How did the inhibition at 1 µM [1] turn out when `C[C@@H](Oc1cc(-c2cnn(C3CCNCC3)c2)cnc1N)c1c(Cl)ccc(F)c1Cl` [crizotinib] was run?
The inhibition at 1 µM was -3%.

What about the inhibition at 1 µM [2] of the same compound?
The inhibition at 1 µM was 11%.

What about the inhibition at 1 µM [3] of the same compound?
The inhibition at 1 µM was -4%.

And the inhibition at 1 µM [4]?
Its inhibition at 1 µM is 5%.

And the inhibition at 1 µM [5]?
The inhibition at 1 µM was 7%.

What about the inhibition at 1 µM [6] of the same compound?
The inhibition at 1 µM was -3%.

What about the inhibition at 1 µM [7] of the same compound?
Its inhibition at 1 µM is -9%.

And the inhibition at 1 µM [8]?
The inhibition at 1 µM was -14%.

And the inhibition at 1 µM [9]?
The inhibition at 1 µM was 2%.

And the inhibition at 1 µM [10]?
Its inhibition at 1 µM is -1%.

And the inhibition at 1 µM [11]?
Its inhibition at 1 µM is -4%.

What about the inhibition at 1 µM [12] of the same compound?
Its inhibition at 1 µM is -7%.

What about the inhibition at 1 µM [13] of the same compound?
The inhibition at 1 µM was 1%.

What about the inhibition at 1 µM [14] of the same compound?
Its inhibition at 1 µM is 3%.

What about the inhibition at 1 µM [15] of the same compound?
The inhibition at 1 µM was 3%.

And the inhibition at 1 µM [16]?
Its inhibition at 1 µM is 2%.

And the inhibition at 1 µM [17]?
The inhibition at 1 µM was 32%.

And the inhibition at 1 µM [18]?
Its inhibition at 1 µM is -6%.
